Broadly, the pIC50 is the negative decadic logarithm of the IC50, by convention in mol/L.

Experiment [1] deals with human cervical epithelial cells of the HeLa line. The experiment in a line: Resazurin cell proliferation test, HeLa cells. Format: cell-based. As to conditions: cervical cancer cells; IC50 equal to and greater than 100 μM considered no activity. An excerpt: For cell culture, human cervical epithelial cells of the HeLa line, human epithelial pancreatic adenocarcinoma cells of the BxPC-3 line and healthy Madin-Darby canine kidney epithelial cells of the MDCK line were used in this study. The Resazurin cell proliferation test was applied according to the literature (S. Anoopkumar-Dukie, J. B. Carey, T. Conere, E. O'Sullivan, F. N. van Pelt, A. Allshire, Br J Radiol 2005, 78, 945, DOI: 10.1259/bjr/54004230). As an indicator of the effectiveness of the experimental compounds on cell proliferation, the median inhibitory concentration (IC50) was used. The lower the IC50 value, the higher the activity (in this case, the cytotoxicity).
Five formula I complexes were tested in this study in comparison to two reference anti-cancer compounds (“Cisplatin” and Doxorubicin complex).

In experiment [2] the test system is families of European domestic bees. The experiment in a line: 1st test in hives: morpho-productive characters. Particulars: for Effects on the prolificity of the queen and the amount of honey collected compared to PPh4-Mo2O4-EDTA: 1st test, 2 mg per colony; for Power of the bee family / Prolificity of the queen / Quantity of honey at the first harvest / Quantity of honey at the first harvest, change versus batch I: overall dose 2 mg per colony; for Power of the bee family / Prolificity of the queen / Quantity of honey at the first harvest: spring feeding, 10 hives; for Quantity of honey at the first harvest, change versus batch I: value in brackets. In kind it is in vivo, Apis mellifera carpatica. Here is the method: Biological field tests were performed on families of European domestic bees of the species Apis mellifera […] experimental apiary located in the […] forestry district (Republic of Moldova). Feeding with the complex of the invention took place in spring. The biological tests were monitored up to the month of September. To administer the compounds to the bees, a very small amount of bioactive substance was added to two types of sugary feeding products for bees: candy in the form of a paste (70% sucrose, 30% honey) or syrup (50% sucrose, 50% water). The bees were fed by adding the candy/syrup to the feeder located in the inner upper part of the hive. The volume of syrup was adjusted based on the number of bee frames at the initial time, more precisely 200 g of candy per frame and 100 mL of syrup per frame, that is 2 kg of candy and 1 L of syrup per hive of 10 frames. For the first feeding step, candy in the form of a paste was only given once. […] From the start of the test to the end (after the second harvest), all the bees were monitored for several key morpho-producing parameters that reflect the development level of the colony and the vital aspects of the bees. The parameters studied are: the prolificity of the queen (fertility), the power of the colonies, the production of honey and the production of wax. These parameters were monitored in line with the zootechnical standards concerning the assessment of bee families, breeding and certification of beekeeping parental material approved by government decision No. 306 dated Apr. 28, 2011 of the Republic of Moldova. The production of honey (in kg) was determined for each family of bees by adding the amount of honey produced (honey from supers), extracted during the harvest season, to the amount of honey built up in the honeycomb (brood chamber) and left as food for the bees for the winter period (brood honey). The amount of honey produced will be determined for each family, for each extraction, by weighing the frames/honeycomb before and after extraction (with an accuracy of 0.1 kg), the weight difference being the quantity of honey produced that was extracted. The amount of honey left in the honeycomb to feed the bees was determined at the autumn visit (September), by weighing the honey frames and deducting (from their total weight) the total weight of the standard honeycomb frames; for […] type frames (435×300 mm)-0.6 kg, for Langstroth frames (435×230 mm)-0.5 kg. The power of the bee colony represents the number of bees present in the honeycomb at the time of the assessment. The assessment is performed three times per year: at the spring visit (March-April), at the end of spring (20-31 May) and at the visit in autumn (September). After these three assessments, the average power of the bee family is determined. The amount of bees (kg) is determined by multiplying the number of intervals between the frames, uniformly occupied by the bees, by the coefficient 0.25 for the standard […] frame (435×300 mm) and by 0.2 for the standard Langstroth frame (435×230 mm). The prolificity of the queen (eggs/24 hours) is determined during the visit at the end of the spring (20-31 May) by dividing the number of cells with the brood by 12 (duration of development of the brood, days), the number of eggs laid in 24 hours. The number of cells in the honeycomb is determined using the Netz frame by measuring the number of squares (5×5 cm) occupied by the brood, which is multiplied by 100, to give the total number of cells with the brood covered. The molecules tested, their concentration in solution and their annual overall doses are listed below: • 1. […] The concentration of the complex in the syrup: 1.5×10^-7 mol/L. Overall and annual product dose: 2 mg of complex per colony • 2. […] The concentration of the complex in syrup: 3.0×10^-7 mol/L. Overall and annual product dose: 2 mg of complex per colony • 3. […] Overall and annual product dose: 2 mg of complex per colony • 4. […]

The test system is the same in experiment [3]. The experiment can be described thus: 2nd test in the hives: power of the bee family. Format: in vivo, Apis mellifera carpatica. Particulars: overall dose 2 mg/hive, 10 hives. Here is the method:
The power of the bee colony represents the number of bees present in the honeycomb at the time of the assessment. The assessment is performed three times per year: at the spring visit (March-April), at the end of spring (20-31 May) and at the visit in autumn (September). After these three assessments, the average power of the bee family is determined. The amount of bees (kg) is determined by multiplying the number of intervals between the frames, uniformly occupied by the bees, by the coefficient 0.25 for the standard […] frame (435×300 mm) and by 0.2 for the standard Langstroth frame (435×230 mm). The 2nd test was performed in the same apiary the following year. Feeding with the complex of the invention took place in spring. The biological tests were monitored up to the month of September. The molecules tested, their concentration in solution and their annual overall doses are listed below: • 1. […] The concentration of the complex in syrup: 1.5×10^-7 mol/L. Overall product dose: 2 mg/colony • 2. […] Overall complex dose: 6 mg/colony • 4. LiCH3COO·H2O for comparison, abbreviated as Li-Ac • The feeding is carried out with 2000 g of candy containing 0.8 mg of product then 6 to 7 L of syrup containing 0.2 mg/L of product. The concentration of product in the syrup: 2.36×10^-6 mol/L that is 1.67×10^-5 g/L. Overall product dose: 2 mg/colony

The structures appear in SMILES notation. pIC50: −log10 of the molar value.

With `O.O.O.O.O.O=C([O-])CN(CCN(CC(=O)[O-])CC(=O)[O-])CC(=O)[O-].[Na+].[Na+].[O]=[Mo+]12[O][Mo+]1(=[O])[O]2` [Na—Mo2O4-EDTA, Na2[Mo2O4 (EDTA)]·5H2O], in experiment [1], the “IC50, HeLa” value was “Inactive”. Also, in experiment [2], the “Effects on the prolificity of the queen and the amount of honey collected compared to PPh4-Mo2O4-EDTA” value is reported as “higher effects”; the “Power of the bee family” value was 101.2 % relative to batch I; the “Prolificity of the queen” value is reported as 113.3 % relative to batch I; the “Quantity of honey at the first harvest” value is listed as 149.9 % relative to batch I. For the same compound, the “Quantity of honey at the first harvest, change versus batch I” value (shortened to “Quantity of honey … change versus batch I”) in experiment [2] is reported as “+49.9%”.
Compound `O=C([O-])CN(CCN(CC(=O)[O-])CC(=O)[O-])CC(=O)[O-].[O]=[Mo+]12[O][Mo+]1(=[O])[O]2.c1ccc([P+](c2ccccc2)(c2ccccc2)c2ccccc2)cc1.c1ccc([P+](c2ccccc2)(c2ccccc2)c2ccccc2)cc1` [PPh4—Mo2O4-EDTA, (PPh4)2[Mo2O4 (EDTA)]·2.5H2O] had a pIC50 in experiment [1] of at most 4.00. Further, in experiment [2], the “Power of the bee family” value was 102.1 % relative to batch I; the “Prolificity of the queen” value is given as 107.1 % relative to batch I; the “Quantity of honey at the first harvest” value is recorded as 113.3 % relative to batch I; the “Quantity of honey … change versus batch I” value is on record as “+13.3%”. The “Power of the bee family” value in experiment [3] is 120 % relative to batch I.
With `CC(=O)[O-].[Li+]` [Li—Ac, LiCH3COO·H2O, reference compound], in experiment [2], the “Power of the bee family” value is given as 98.3 % relative to batch I; the “Prolificity of the queen” value was 108.8 % relative to batch I; the “Quantity of honey at the first harvest” value is 122.9 % relative to batch I; the “Quantity of honey … change versus batch I” value is “+22.9%”. The “Power of the bee family” value in experiment [3] is given as 97.5 % relative to batch I.
On to `O.O.O.O.O.O.O=C([O-])CN(CCN(CC(=O)[O-])CC(=O)[O-])CC(=O)[O-].[Li+].[Li+].[O]=[Mo+]12[O][Mo+]1(=[O])[O]2` [Li—Mo2O4-EDTA, Li2[Mo2O4 (EDTA)]·6H2O], for which the “IC50, HeLa” value in experiment [1] is given as “Inactive”. In experiment [2], the “Effects on the prolificity of the queen and the amount of honey collected compared to PPh4-Mo2O4-EDTA” value was “higher effects”; the “Power of the bee family” value is 103.3 % relative to batch I; the “Prolificity of the queen” value is 111.7 % relative to batch I; the “Quantity of honey at the first harvest” value is 143.1 % relative to batch I. Moreover, the “Quantity of honey … change versus batch I” value in experiment [2] is “+43.1%”. Further, the “Power of the bee family” value in experiment [3] is 120 % relative to batch I.

(Values after patent publication US12582721B2, “Molybdenum-based feed supplement for bees” (UNIVERSITE DE VERSAILLES—SAINT-QUENTIN-EN-YVELINES, priority 2020, dated 2026).)
